Literature values, collected in patent publication US8981059B2, “Platelet aggregation inducing substance” (JNC Corporation, priority 2006, dated 2015).

System: platelets
Details: as disclosed in the non-patent documents

-(Gly-Pro-Hyp)10- [polypeptide -(Gly-Pro-Hyp)10-]
platelet aggregation inducing activity: low
